Laboratory results as given in the supplement of paper PMC10307832.

Tests used:
Experiment in all cases: relative viability (nuclei count vs DMSO), 5 days (fraction); higher = more cells survive
Tosedostat + OSI-027 = compound: CC(C)C[C@@H](C(=O)N[C@H](C(=O)OC1CCCC1)c1ccccc1)[C@H](O)C(=O)NO [Tosedostat] + COc1cccc2cc(-c3nc([C@H]4CC[C@H](C(=O)O)CC4)n4ncnc(N)c34)[nH]c12 [OSI-027] (partner 0.5 µM)
Method in brief: (§1)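 Each reported value is a median over duplicate plates. It expresses relative viability: treated-well nuclei count divided by vehicle-well nuclei count. Lung cancer cell lines in 1536-well plates were dosed by pin tool a day after seeding, alone with one drug or with a fixed anchor-drug dose plus five library-drug doses (not always all listed) in √10 steps, and nuclei were counted after 5 days.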

Tosedostat + Vorinostat = compound: CC(C)C[C@@H](C(=O)N[C@H](C(=O)OC1CCCC1)c1ccccc1)[C@H](O)C(=O)NO [Tosedostat] + O=C(CCCCCCC(=O)Nc1ccccc1)NO [Vorinostat] (partner 1 µM)
Method in brief: as §1

[1] = compound: CC1=NN=C(O1)C2=NN=C(C=C2)N3CCC(CC3)OC4=C(C=CC(=C4)F)Cl + CC1(C)CCC(c2ccc(Cl)cc2)=C(CN2CCN(c3ccc(C(=O)NS(=O)(=O)c4ccc(N[C@H](CCN5CCOCC5)CSc5ccccc5)c(S(=O)(=O)C(F)(F)F)c4)cc3)CC2)C1 [Navitoclax] (partner 0.5 µM)
Method in brief: as §1

[2] = compound: CC1=NN=C(O1)C2=NN=C(C=C2)N3CCC(CC3)OC4=C(C=CC(=C4)F)Cl + C[C@]1(O)C[C@@H](c2nc(-c3ccc4ccc(-c5ccccc5)nc4c3)c3c(N)nccn32)C1 [Linsitinib] (partner 1 µM)
Method in brief: as §1

Cell Line	relative viability (Tosedostat + OSI-027; first compound 0.02 µM)	relative viability (Tosedostat + OSI-027; first compound 0.06325 µM)	relative viability (Tosedostat + OSI-027; first compound 0.2 µM)	relative viability (Tosedostat + OSI-027; first compound 0.6325 µM)	relative viability (Tosedostat + OSI-027; first compound 2 µM)	relative viability (Tosedostat + Vorinostat; first compound 0.02 µM)	relative viability (Tosedostat + Vorinostat; first compound 0.06325 µM)	relative viability (Tosedostat + Vorinostat; first compound 0.2 µM)	relative viability (Tosedostat + Vorinostat; first compound 0.6325 µM)	relative viability (Tosedostat + Vorinostat; first compound 2 µM)	relative viability ([1]; first compound 0.253 µM)	relative viability ([1]; first compound 0.8 µM)	relative viability ([1]; first compound 2.53 µM)	relative viability ([1]; first compound 8 µM)	relative viability ([2]; first compound 0.253 µM)	relative viability ([2]; first compound 0.8 µM)	relative viability ([2]; first compound 2.53 µM)	relative viability ([2]; first compound 8 µM)
NCI-H1915	0.659	0.614	0.643	0.585	0.532	0.51	0.457	0.516	0.503	0.527	0.372	0.281	0.348	0.277	0.582	0.51	0.45	0.376
NCI-H1944	0.424	0.401	0.422	0.381	0.38	0.632	0.505	0.653	0.523	0.556	0.637	0.665	0.733	0.672	0.626	0.769	0.728	0.717
NCI-H1975	0.822	0.743	0.708	0.552	0.424	0.741	0.742	0.678	0.611	0.622		0.82	0.838	0.882		0.941	0.815	0.868
NCI-H1993	0.555	0.476	0.564	0.548	0.442	0.732	0.728	0.588	0.608	0.548	0.804	0.824	0.876	0.878	0.679	0.745	0.647	0.693
NCI-H2009	0.696	0.605	0.498	0.4	0.367	0.808	0.659	0.736	0.633	0.645	0.667	0.671	0.614	0.54	0.684	0.636	0.623	0.589
NCI-H2023	0.431	0.383	0.328	0.251	0.231	0.641	0.547	0.62	0.358	0.501	0.486	0.557	0.565	0.442	0.478	0.433	0.557	0.393
NCI-H2085	0.555	0.797	0.704	0.699	0.673		0.831	0.748	0.897	0.74	0.9	0.919	0.908	0.698	0.743	0.793	0.792	0.65
NCI-H2087	0.664	0.497	0.487	0.543	0.559	0.718	0.667	0.66	0.735	0.667	0.701	0.713	0.724	0.63	0.646	0.659	0.621	0.53
NCI-H2126	0.714	0.786	0.622	0.614	0.583	0.635	0.822	0.81	0.701	0.79	0.785	0.759	0.747	0.645	0.67	0.64	0.753	0.505
NCI-H2228	0.728	0.574	0.571	0.387	0.363	0.615	0.348	0.548	0.25	0.236	0.63	0.592	0.756	0.526	0.673	0.808	0.481	0.547
NCI-H2347	0.364	0.203	0.459	0.353	0.427	0.496	0.451	0.681	0.498	0.575	0.643	0.533	0.62	0.532	0.636	0.69	0.766	0.658
NCI-H2405	0.662	0.637	0.707	0.596	0.585	1.06	1.12	0.955	0.841	0.798	0.902	0.722	0.784	0.83	0.859	0.784	0.851	0.731
NCI-H3122	1.15	0.985	1.01	0.963	0.588	1.02	1.06	1.46	0.879	0.954	0.564	0.612	0.691	0.46	0.729	0.551	0.749	0.517
PC-3 [JPC-3]	0.693	0.828	0.73	0.614	0.609	0.861	0.949	0.656	0.606	0.561	0.764	0.691	0.796	0.722	0.789	0.869	0.869	0.844
PC-14	0.959	0.818	0.637	0.5	0.449	0.819	0.653	0.712	0.58	0.458	0.742	0.717	0.719	0.702	0.783	0.732	0.777	0.739
RERF-LC-KJ	0.588	0.586	0.486	0.452	0.418	0.692	0.676	0.604	0.681	0.619	0.781		0.671	0.765	0.523	0.568	0.6	0.632
SK-LU-1	0.43	0.348	0.337	0.297	0.329	0.897	0.721	0.717	0.677	0.717	0.765	0.957	0.706	0.531	1.03	0.852	1.02	0.589
